# What was measured:
# [1] = tested on: MDA-MB231, MCF7, and DU4475; test: Agarose gel electrophoresis / DNA fragmentation (DNA laddering) in CXCR4-expressing lines; format: cell-based, human; settings: positive control, 10 mM (6.35 mg/ml), 24 hours, compared to untreated cultures
# Protocol: Untreated or treated cells were collected, and DNA was harvested from normal or cancer cell cultures. Briefly, the cells were washed with PBS, pelleted at 1600 g for 20 minutes at 4°C, and resuspended in 50 mM Tris-HCl, pH 7.5, 20 mM EDTA buffer at about 10^7 cells/ml. The cells were then treated 2x with lysis buffer: 1.0% NP-40 (Sigma, St. Louis, MO) in the same Tris/EDTA buffer at RT for 2 minutes followed by centrifugation at 1600 g for 5 minutes. After the last spin, SDS was added to the supernatant to 1% final concentration, RNase A (Sigma, St. Louis, MO) was added to 5 mg/ml final concentration, and the solution incubated at 56°C for 2 hours. Subsequently, protease K (Promega, Madison, WI) was added to the solution to 2.5 µg/ml and incubated at 37°C for 2.5 hr. Ammonium acetate was added to 4 M final concentration, 0.7 volumes of isopropanol was added, the solution was put at -20°C overnight followed by centrifugation at 14,000 rpm for 30 minutes. The pellets were washed twice with 70% ethanol, dried and resuspended in 10 mM Tris-HCl, pH 7.5, 1 mM EDTA. DNA samples, 18 µg per condition, were prepared in neutral loading buffer to a final concentration of 0.02% bromophenol blue, 5% glycerol, 0.1% SDS, and 50 µg of ethidium bromide, loaded onto a neutral agarose gel (1.7%), and run at 50V for 2.5 hours. […]
# [2] = tested on: epithelial tumor cell lines; test: Apoptotic assay of Gp 120 and Nef peptides; format: cell-based, human; settings: peptide sequences within Nef or Gp 120
# Excerpt: The nef protein was expressed and purified in the inventors' laboratory. overlapping 20 mer peptides encompassing the entire nef protein and overlapping 15 mer peptides encompassing the entire Gp 120 protein were obtained from the NIH AIDS Research & Reference Reagent Program (McKesson HBC Bio-Services, MD) Other specific peptides designed from within Gp 120 or nef were obtained from SigmaGenosys.
# Apoptosis generates DNA free ends which can be labeled in situ using terminal deoxynucleotidyl-transferase (TdT), incorporating an exogenously added labeled nucleotide to the DNA strand. This label can then be visualized directly by fluorescence or indirectly using anti-FITC-peroxidase, and a colorimetric assay. Cells on coverslips were washed with PBS, and fixed for 30 minutes at RT with 4% paraformaldehyde, in PBS, pH 7.4. They were then washed with PBS, and permeabilized with 0.1% Triton X-100 for 10 minutes at room temperature (RT). The slides were rinsed twice with PBS, and air dried for 2 minutes. The manufacturer's procedure for TUNEL staining the slides was followed (manufacturer's procedure for the In Situ Cell Death Detection Kit, AP; Boehringer Mannheim, Indianapolis, IN). Total cell counts were determined by counterstaining fixed cultures with 20 µg/ml of Hoechst 33258. […]
Substance,DNA laddering [1],apoptotic properties of the sequence [2]
ceramide,DNA laddering characteristic of apoptotic cells was observed,–
ALAETCONAWA,–,lost all apoptotic effects

# From EP1620056B1, “TUMOR CYTOTOXICITY INDUCED BY MODULATORS OF THE CXCR4 RECEPTOR” (Morehouse School of Medicine, priority 2003, dated 2004)
